Test results from patent US7749982B2, “Complex containing mequitazine, a cyclodextrin and an interaction agent” (Pierre Fabre Medicament, priority 2004, dated 2010).

Key:
[1] = Mequitazine solubilization test (2 g/l in water, HPLC assay); format: physicochemical
Method: In the sense of the present invention, “rate of solubilization” means the percentage of solubilized mequitazine after stirring a mixture of water and mequitazine for 15 minutes at 37° C. A mixture of 2 g/l of mequitazine in water is usually used to measure this rate. This solubilization can be measured by a solubilization test as indicated below.
The mequitazine content in the dissolution solutions is measured by HPLC:
In a 100 ml Erlenmeyer flask, place a test sample equivalent to 100 mg of mequitazine. Add 50 ml of ultrapure water. […] Place under magnetic stirring at 400 rpm in a water bath at 37° C.±2° C. Remove a 2 ml sample under magnetic stirring at 15 minutes. Filter the sample on a 0.45 μm Gelman GHP Acrodisc polypropylene filter. The solution must be limpid. Dilute the sample to 1/200 in a phase: water/acetonitrile (50/50).
Deduce concentration X in μg/ml by following the regression line of the controls.
Calculate the concentration in μg/ml of solubilized mequitazine by multiplying by the inverse of the dilution made (i.e., 200).
The rate of solubility of mequitazine is calculated by dividing the concentration of solubilized mequitazine by the total concentration of mequitazine in the starting solution. […]
The solubility and the rates of solubilization of mequitazine only or mequitazine in physical mixtures are measured as indicated above in the “mequitazine solubilization test”. […]

[2] = Bioavailability of mequitazine administered by oral route; conditions: in vivo
Description: As for many pharmaceutically active ingredients, the absorption of mequitazine administered by oral route takes place in the intestine. […] A very small portion of the mequitazine ingested is in solubilized form, and thus it is absorbed with difficulty through the intestinal barrier.

- solubility (in words) ([1]; acid pH range from 2 to 6): high solubility
- solubility (in words) ([1]; pH 9): very low solubility
- bioavailability [2]: ~0.3%
Structure (SMILES): c1ccc2c(c1)Sc1ccccc1N2CC1CN2CCC1CC2 (stereo not drawn) [mequitazine]
